According to US9499493B2, “2,4-pyrimidinediamine compounds and their uses” (Rigel Pharmaceuticals, Inc., priority 2002, dated 2016):

Legend:
[1] = tested on: bone marrow derived mast cells (BMMC); assay: BMMC high cell density IgE activation: hexosaminidase; assay type: cell-based, mouse; settings: anti-IgE, second part of TABLE 1, read-out: BMMC anti-IgE hexos. IC50
Protocol: (§1) After sensitizing, cells are counted, pelleted (1000 rpm, 5-10 minutes), and resuspended at 1-3×10^6 cells/ml in MT buffer. Add 100 ul of cell suspension to each well and 100 ul of compound dilutions. The final vehicle concentration is 0.5% DMSO. Incubate at 37° C. (5% CO2) for 1 hour. After 1 hour of compound treatment, stimulate cells with 6× stimulus (60 ng/ml DNP-BSA). Mix wells with the cells and allow plates to incubate at 37° C. (5% CO2) for one hour. After 1 hour incubation, pellet cells (10 minutes, 1000 RPM) and collect 200 ul per well of the supernatant, being careful not to disturb pellet, and transfer to a clean tube or 96-well plate. Place the supernatant plate on ice. During the 4-5 hour step (see next) perform the hexosiminidase assay. Resuspend cell pellet in 240 ul WEI-conditioned media containing 0.5% DMSO and corresponding concentration of compound. Incubate BMMC cells for 4-5 hours at 37° C. (5% CO2). After incubation, pellet cells (1000 RPM, 10 minutes) and collect 225 ul per well and place in −80° C. until ready to perform ELISAS. ELISAS are performed on appropriately diluted samples (determined empirically for each donor cell population so that the sample measurement falls within the standard curve) following the supplier's instructions.
Hexosaminidase assay: In a solid black 96-well assay plate, add 50 uL hexosaminidase substrate (4-methylumbelliferyl-N-acetyl-(3-D-glucosaminide; 2 mM) to each well. Add 50 uL of BMMC cell supernatant (see above) to the hexoseaminidase substrate, place at 37° C. for 30 minutes and read the plate at 5, 10, 15, and 30 minutes on a spectrophotometer.

[2] = tested on: cultured human mast cells (CHMC); assay: CHMC low cell density ionomycin activation: tryptase assay; assay type: cell-based
[3] = tested on: cultured human mast cells (CHMC); assay: CHMC low cell density IgE activation: tryptase assay; assay type: cell-based; settings: anti-IgE
Outline: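 Low-density CHMC assay: donor-adjusted 1000-1500 cells/well, MT buffer, 1 hr 37° C preincubation; anti-IgE stimulus 30 min 37° C versus MT-only controls; supernatant tryptase by substrate, 30 min RT.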

[4] = tested on: IgE-induced degranulation of tissue mast cells; assay: Mouse model of passive cutaneous anaphylaxis (PCA); assay type: in vivo; settings: for % Inhibition (PCA): PO, 67% PEG/33% citrate buffer, pretreatment 15 min; for PCA response, positive controls (in words): mouse, in vivo
Protocol: This model provides a direct measure of IgE-induced degranulation of tissue mast cells. In this model, IgE primed animals are exposed to an allergen challenge, and the change in permeability of dermal vasculature that results from histamine release from mast cells is measured by change in the amount of dye leakage into surrounding tissue. Inhibition of mediator release by compounds that modulate mast cell degranulation is easily measured by extracting the dye from the tissue.
In the PCA assay mice are passively sensitized by intradermal injection with anti-dinitrophenol (DNP) IgE antibodies (Day −1). At predetermined times animals are treated with the test agent (Day 0). The modulatory effect of the agent on cutaneous mast cell degranulation is measured following intravenous injection of DNP conjugated to human serum albumin (HSA-DNP), together with Evans blue dye. The resulting cross-linking of the IgE receptor and subsequent mast cell degranulation-induced increase in vascular permeability is determined by measuring the amount of dye extravasation into the tissue. Dye is extracted from the tissue by formamide, and the absorbance of this extract is read at 620 nm.

[5] = tested on: bone marrow derived mast cells (BMMC); assay: BMMC high cell density IgE activation: LTC4; assay type: cell-based, mouse; settings: anti-IgE, second part of TABLE 1
Protocol: (§2) Inhibition of degranulation was measured at both low and high cell density by quantifying the release of the granule specific factors tryptase, histamine and hexosaminidase. Inhibition of release and/or synthesis of lipid mediators was assessed by measuring the release of leukotriene LTC4 and inhibition of release and/or synthesis of cytokines was monitored by quantifying TNF-α, IL-6 and IL-13. Tryptase and hexosaminidase were quantified using fluorogenic substrates as described in their respective examples. […] The protocols of the various assays are provided below.
as §1

[6] = tested on: bone marrow derived mast cells (BMMC); assay: BMMC high cell density IgE activation: TNFalpha; assay type: cell-based, mouse; settings: anti-IgE, second part of TABLE 1, read-out: BMMC anti-IgE TNF-alpha IC50
Protocol: as §2, §1

[7] = tested on: bone marrow derived mast cells (BMMC); assay: BMMC high cell density IgE activation: IL-6; assay type: cell-based, mouse; settings: anti-IgE, second part of TABLE 1
Protocol: as §2, §1

[8] = tested on: bone marrow derived mast cells (BMMC); assay: BMMC high cell density IgE activation: histamine; assay type: cell-based, mouse; settings: anti-IgE, second part of TABLE 1
Protocol: as §2, §1

| Compound | IC50 [1] | IC50 [2] | IC50 [3] | IC50 [5] | IC50 [6] | IC50 [7] | IC50 [8] | further results |
| --- | --- | --- | --- | --- | --- | --- | --- | --- |
| CCOC(=O)COc1ccc(Nc2ncc(F)c(Nc3ccc4c(c3)OCCO4)n2)cc1 [R925747, N2-(4-Ethoxycarbonylmethyleneoxyphenyl)-N4-(3,4-ethylenedioxyphenyl)-5-fluoro-2,4-pyrimidinediamine] | 3.1 µM | 3.1 µM | 1.02 µM | – | – | – | – | – |
| Fc1cnc(Nc2ccc3c(c2)OCCO3)nc1Nc1ccc2c(c1)OCCO2 [R926109, N2,N4-Bis(3,4-ethylenedioxyphenyl)-5-fluoro-2,4-pyrimidinediamine] | – | – | – | – | – | – | – | % Inhibition (PCA) ([4]; 50 mg/kg): 22%; % Inhibition (PCA) ([4]; 100 mg/kg): 32%; % Inhibition (PCA) ([4]; 200 mg/kg): 48%; FcεR-mediated vascular leakage with increasing doses (in words) ([4]; solution (67% PEG/33% citrate buffer) or aqueous suspension (1.5% Avicel)): dose-dependent inhibition |
| CNC(=O)COc1cccc(Nc2nc(Nc3cccc(O)c3)ncc2C(F)(F)F)c1 [R926741, N2-(3-Hydroxyphenyl)-5-trifluoromethyl-N4-[3-(N-methylamino)carbonylmethyleneoxyphenyl]-2,4-pyrimidinediamine] | 0.961 µM | > 10 µM | 2.91 µM | > 10 µM | 0.772 µM | 0.537 µM | 1.02 µM | – |
| O=C(NC(CO)CO)c1cc2cc(Nc3ncc(F)c(Nc4ccc5c(c4)OCCO5)n3)ccc2o1 [R926785, N2-[2-(N-1,3-Dihydroxy-2-propylamino)carbonylbenzofuran-5-yl]-N4-(3,4-ethylenedioxyphenyl)-5-fluoro-2,4-pyrimidinediamine] | 0.989 µM | > 10 µM | – | 1.41 µM | 1.31 µM | 0.513 µM | 0.561 µM | – |
| Oc1cccc(Nc2ncc(F)c(Nc3ccc(OCc4nc(-c5ccccc5)no4)cc3)n2)c1 [R935138, 5-Fluoro-N2-(3-hydroxyphenyl)-N4-[4-(3-phenyl-1,2,4-oxadiazol-5-yl)methyleneoxyphenyl]-2,4-pyrimidinediamine] | < 0.22 µM | 0.552 µM | 0.096 µM | 0.373 µM | 0.409 µM | < 0.22 µM | < 0.22 µM | – |
| Oc1cccc(Nc2nc(Nc3ccc4cn[nH]c4c3)ncc2F)c1 [R935191, 5-Fluoro-N4-(3-hydroxyphenyl)-N2-(indazolin-6-yl)-2,4-pyrimidinediamine] | 0.068 µM | > 10 µM | – | 0.213 µM | 0.071 µM | – | – | – |
| Cn1ncc2cc(Nc3ncc(F)c(Nc4cccc(O)c4)n3)ccc21 [R935194, 5-Fluoro-N4-(3-hydroxyphenyl)-N2-(1-methy-indazoline-5-yl)-2,4-pyrimidinediamine] | – | > 10 µM | – | 0.493 µM | – | 0.034 µM | 0.054 µM | – |
| Cc1cc(Nc2nc(Nc3cccc(OCC(=O)N4CCOCC4)c3)ncc2F)cc(Cl)c1O [R940265, N4-(3-Chloro-4-hydroxy-5-methylphenyl)-5-fluoro-N2-[3-(N-morpholino)carbonylmethyleneoxyphenyl]-2,4-pyrimidinediamine] | 0.981 µM | > 10 µM | 0.239 µM | 1.21 µM | 1.13 µM | 0.486 µM | 0.306 µM | – |
| CNC(=O)COc1cccc(Nc2ncc(F)c(Nc3cccc(C(C)(C)C)c3)n2)c1 [R940276, N4-(3-tert-Butylphenyl)-N2-[3-(N-methylamino)carbonylmethyleneoxyphenyl]-5-fluoro-2,4-pyrimidinediamine] | 0.136 µM | > 10 µM | 0.211 µM | 0.332 µM | 0.251 µM | < 0.056 µM | 0.073 µM | – |
| CC(C)(C)c1cccc(Nc2nc(Nc3cccc(OCC(=O)NCC(O)CO)c3)ncc2F)c1 (centres unmarked) [R940277, N4-(3-tert-Butylphenyl)-N2-[3-(N-2,3-dihydroxypropylamino)carbonylmethyleneoxyphenyl]-5-fluoro-2,4-pyrimidinediamine] | 0.279 µM | > 10 µM | – | 0.625 µM | 0.262 µM | 0.181 µM | 0.315 µM | – |
| CC(C)c1cccc(Nc2nc(Nc3cccc(OCC(=O)NCC(O)CO)c3)ncc2F)c1 (centres unmarked) [R940290, N2-[3-(N-2,3-Dihydroxypropylamino)carbonylmethyleneoxyphenyl]-5-fluoro-N4-(3-isopropylphenyl)-2,4-pyrimidinediamine] | – | > 10 µM | – | 0.59 µM | – | 0.1 µM | 0.545 µM | – |
| CNC(=O)CNc1cccc(Nc2ncc(F)c(Nc3ccc4c(c3)OCCO4)n2)c1 [R950191] | < 0.22 µM | > 10 µM | 0.178 µM | 0.401 µM | < 0.22 µM | < 0.22 µM | > 2 µM | – |
| CNC(=O)COc1cccc(Nc2ncc(F)c(Nc3ccc(OC(F)(F)F)c(C(=O)OC)c3)n2)c1 [R950392, N4-(3-Methoxycarbonyl-4-trifluoromethoxyphenyl)-5-fluoro-N2-[3-(N-methylamino)carbonylmethyleneoxyphenyl]-2,4-pyrimidinediamine] | – | > 10 µM | 0.956 µM | – | – | – | – | – |
| CNC(=O)COc1cccc(Nc2ncc(F)c(Nc3ccc4c(c3)C(NC(C)=O)CCO4)n2)c1 (centres unmarked) [R950393, N4-(4-Acetylamino-3,4-dihydro-2H-1-benzopyran-6-yl)-5-fluoro-N2-[3-(N-methylamino)carbonylmethyleneoxyphenyl]-2,4-pyrimidinediamine] | – | > 10 µM | 0.404 µM | – | – | – | – | – |
| CN1CCC(=C2c3ccccc3C=Cc3ccccc32)CC1 [cyproheptadine, reference compound] | – | – | – | – | – | – | – | inhibition of the PCA response ([4]; 8 mg/kg, i.p., 30 minutes pretreatment time, n=23 experiments): 61%; PCA response, positive controls (in words) [4]: inhibit the PCA response |
| CN(C)CCOC(c1ccccc1)c1ccccc1 [diphenhydramine, reference compound] | – | – | – | – | – | – | – | PCA response, positive controls (in words) [4]: inhibit the PCA response |
| N2,N4-Bis(methoxycarbonylbenzyl)-5-cyano-2,4-pyrimidinediamine [R925819] | – | > 10 µM | > 10 µM | – | – | – | – | – |
| N2-(3,4-Ethylenedioxyphenyl)-5-ethoxycarbonyl-4-[N-(L)-phenyl glycinyl ethyl ester)-2-pyrimidineamine [R926536] | – | > 10 µM | > 10 µM | – | – | – | – | – |
| N2-(3-Ethylcarboxy-4H-imidazo[5,1-c]-1,4-benzoxazin-6-yl)-5-fluoro-N4-(3-hydroxyphenyl)pyrimidinediamine [R909267] | – | > 10 µM | 0.589 µM | – | – | – | – | – |
| N2-(Carboxymethyleneaminophenyl)-5-fluoro-N4-[3-(2-hydroxyethyloxy)phenyl]-2,4-pyrimidinediamine [R950230] | – | > 10 µM | 7.91 µM | – | – | – | – | – |
| N2-[3-(N-2-Aminoethylamino)carbonylmethylene aminophenyl]-5-fluoro-N4-[3-(2-hydroxyethylenoxy)phenyl]-2,4-pyrimidinediamine [R950232] | – | > 10 µM | 10 µM | – | – | – | – | – |
